# According to patent publication US6447997B1, “Gene coding for GADD153 as a clinical diagnostic and prognostic in cancer therapy” (Research Development Foundation, priority 1997, dated 2002):
# How the values were obtained:
# [1] = Maximum tolerated dose of cDDP in the nude mouse xenograft system; type: in vivo; settings: nude mice, i.p.
# Experimental: (§1) The various aspects of the invention are also useful for xenografted tumors. Nude mice were inoculated s.c. with human UMSCC10b tumor cells, and then treated with cDDP (0, 10, 15, 30 or 50 mg/kg cDDP i.p.) when the tumors reached 1 ml in volume. FIG. 5a depicts the results obtained when tumors were harvested at 24 h after cDDP treatment. […] The time course of the change in message level in the xenografts was similar to that observed with in vitro exposure of the cells (FIG. 5b). Thus, GADD153 mRNA levels can be increased in vivo by cDDP doses around the maximum tolerated dose in this system (15-20 mg/kg cDDP).
# GADD153 mRNA = GADD153 mRNA level in UMSCC10b xenografts in nude mice after cDDP; type: in vivo
# Experimental: as §1
# UMSCC10b cells were injected subcutaneously over the shoulder of athymic (BALB/c nu/nu) female mice, 3-4 weeks of age (Harlan Sprague Dawley, Indianapolis, Ind.). The xenografts were allowed to grow until they reached approximately […] in volume, at which time cDDP treatment was initiated. […]
# GADD153 message levels were quantified using a modification of the technique reported by Horikoshi et al (20). […] PCR products were separated on a 8 M (6%) acrylamide gel and analyzed using a Molecular Imaging System (BioRad, Hercules, Calif.). For each RNA sample to be analyzed, a series of PCR reactions was performed to generate a graph of the amount of PCR product as a function of input CDNA for both GADD153 and β-ACTIN. […]
# [2] = system: stage IV head and neck cancer; test: Tumor clinical response of patients to cDDP-based treatment; type: in vivo, human; settings: i.a. cDDP with i.v. sodium thiosulfate, with or without radiation therapy
# Experimental: Thirty-two patients with previously untreated stage IV head and neck cancer were treated at the UCSD Cancer Center on a phase I/II experimental protocol. All patients had been considered to have unresectable tumors. All patients received i.a. cDDP (150-200 mg/M^2) and i.v. sodium thiosulfate infusion concurrently. The details of this treatment program have been published elsewhere by the present inventors (17,18), which description is specifically incorporated herein by reference. cDDP was dissolved in 400 ml of 0.9% saline and infused over 3-5 minutes through a microcatheter placed angiographically to selectively encompass the dominant blood supply of the targeted tumor. Simultaneous with the cDDP infusion, sodium thiosulfate was infused i.v. at a dose of 9 g/m^2 dissolved in 300 ml of distilled water over 3 minutes, followed by 12 g/m^2 dissolved in one liter of distilled water over 6 h by continuous infusion to prevent severe nephrotoxicity. Treatment was repeated weekly for a total of 4 doses. In addition, 17 of the 32 patients received radiotherapy in doses of […] (×35 fractions) starting concurrently with the start of cDDP treatment. Needle aspiration or small cutting needle biopsies were obtained just before and at 24 h following the first dose of cDDP. Tumor response was assessed at 2 months using criteria based on physical examination, repeat computed tomography/magnetic resonance imaging studies, and repeat endoscopy and biopsy.
# UMSCC10b-Pt/S6 = test: Sensitivity to cDDP in vitro, clonogenic assay; type: cell-based, human; settings: subline UMSCC10b-Pt/S6
# Experimental: (§2) UMSCC10b cells were selected for cDDP resistance by chronic exposure to cDDP which was supplied by (Bristol-Meyers-Squibb, Princeton, N.Y.). The first three selections were performed at a concentration of 0.5 μM which allowed approximately 10^7 cells to grow to confluence in a 150 cm^2 flask within one week. For every following set of 3 selections, the cDDP concentration was increased by approximately 20% (15,16). The sensitivity of the UMSCC10b cell line and its cDDP-resistant variants to cDDP was determined by clonogenic assay using a 1 h cDDP exposure. A single-cell suspension was plated into 60 mm tissue culture dishes (Corning) at 300 cells per dish in fresh medium. After incubation for 24 h at 37° C., cells had attached to the plates and cDDP was added to the cells and incubated for 1 h following which the cells were washed twice with phosphate-buffered saline and 5 ml of fresh medium was added. Cultures were incubated for an additional 13-15 days following which there were fixed with methanol, stained with Giemsa, and clusters of >50 cells were scored as colonies. cDDP-selected cells were cultured in drug-free media for 2 weeks before cDDP sensitivity was determined by clonogenic assay.
# UMSCC10b-Pt/S15 = test: Sensitivity to cDDP in vitro, clonogenic assay; type: cell-based, human; settings: subline UMSCC10b-Pt/S15
# Experimental: as §2
compound,measurement,setting,value
"[NH2][Pt]([NH2])([Cl])[Cl] [cDDP, cisplatin]",maximum tolerated dose,[1],15 to 20 mg/kg
same,time of return of GADD153 mRNA toward basal levels in vivo,GADD153 mRNA; UMSCC10b xenografts after treatment,≤ 96 h
same,GADD153 mRNA levels in xenografts,"GADD153 mRNA; tumors harvested 24 h after cDDP i.p., 0-50 mg/kg",increased as a function of cDDP dose
same,patients who achieved a partial regression (PR),[2]; assessed at 2 months,8 of the 32
same,patients who attained a complete regression of the tumor (CR),[2]; assessed at 2 months,17 of the 32
same,patients who had tumor progression (NR),[2]; of 32 patients,7 patients
same,cDDP resistance relative to parental cells,UMSCC10b-Pt/S6,3 fold
same,cDDP resistance relative to parental cells,UMSCC10b-Pt/S15,6 fold
